Results as given in ChEMBL document CHEMBL2390843, “Design, synthesis and antitumour activity of bisquinoline derivatives connected by 4-oxy-3-fluoroaniline moiety” (Eur J Med Chem, 2013).

How the values were obtained:
[1] = Cytotoxicity against human H460 cells after 72 hrs by MTT assay; conditions: NCI-H460, 72 h
HT-29 = assay: Cytotoxicity against human HT-29 cells after 72 hrs by MTT assay; conditions: HT-29, 72 h
[2] = Cytotoxicity against human U87MG cells after 72 hrs by MTT assay; format: functional, cell-based, U-87MG ATCC; conditions: U-87 MG
MKN-45 = assay: Cytotoxicity against human MKN45 cells after 72 hrs by MTT assay; conditions: MKN-45, 72 h
SMMC-7721 = assay: Cytotoxicity against human SMMC7721 cells after 72 hrs by MTT assay; conditions: SMMC-7721, 72 h

| SMILES | IC50 [1] | IC50 (HT-29) | IC50 [2] | IC50 (MKN-45) | IC50 (SMMC-7721) |
| --- | --- | --- | --- | --- | --- |
| COc1cc2c(Oc3ccc(NC(=O)c4cc(-c5ccc(C)cc5)nc5ccc(F)cc45)cc3F)ccnc2cc1OCCCN1CCOCC1 | 440 nM | 390 nM | 820 nM | 320 nM |  |
| COc1cc2c(Oc3ccc(NC(=O)c4cc(-c5cccc(Cl)c5)nc5ccc(F)cc45)cc3F)ccnc2cc1OCCCN1CCC(C)CC1 | 60 nM | 92 nM | 110 nM | 10 nM |  |
| COc1cccc(-c2cc(C(=O)Nc3ccc(Oc4ccnc5cc(OCCCN6CCC(C)CC6)c(OC)cc45)c(F)c3)c3cc(F)ccc3n2)c1 | 840 nM | 1210 nM | 840 nM | 730 nM |  |
| COc1cc2c(Oc3ccc(NC(=O)c4cc(-c5ccc(C)cc5)nc5ccc(F)cc45)cc3F)ccnc2cc1OCCCN1CCC(C)CC1 | 480 nM | 420 nM | 2000 nM | 260 nM |  |
| COc1cc2c(Oc3ccc(NC(=O)c4cc(-c5ccccc5)nc5ccc(F)cc45)cc3F)ccnc2cc1OCCCN1CCCC1 | 90 nM | 160 nM | 960 nM | 110 nM |  |
| COc1cc2c(Oc3ccc(NC(=O)c4cc(-c5cccc(Cl)c5)nc5ccc(F)cc45)cc3F)ccnc2cc1OCCCN1CCCC1 | 72 nM | 670 nM | 990 nM | 67 nM |  |
| COc1ccc(-c2cc(C(=O)Nc3ccc(Oc4ccnc5cc(OCCCN6CCCC6)c(OC)cc45)c(F)c3)c3cc(F)ccc3n2)cc1 | 250 nM | 610 nM | 930 nM | 170 nM |  |
| COc1cc2c(Oc3ccc(NC(=O)c4cc(-c5ccccc5)nc5ccccc45)cc3F)ccnc2cc1OCCCN1CCC(C)CC1 | 68 nM | 120 nM | 920 nM | 19 nM | 160 nM |
| COc1ccc(-c2cc(C(=O)Nc3ccc(Oc4ccnc5cc(OCCCN6CCC(C)CC6)c(OC)cc45)c(F)c3)c3ccccc3n2)cc1 | 110 nM | 1110 nM |  | 320 nM | 450 nM |
| COc1cc2c(Oc3ccc(NC(=O)c4cc(-c5ccc(C)cc5)nc5ccccc45)cc3F)ccnc2cc1OCCCN1CCC(C)CC1 | 880 nM | 3150 nM |  | 770 nM | 1260 nM |
| COc1cc2c(Oc3ccc(NC(=O)c4cc(-c5ccc(Cl)c(Cl)c5)nc5ccccc45)cc3F)ccnc2cc1OCCCN1CCCC1 | 400 nM | 1960 nM |  | 170 nM | 340 nM |
| COc1cccc(-c2cc(C(=O)Nc3ccc(Oc4ccnc5cc(OCCCN6CCCC6)c(OC)cc45)c(F)c3)c3ccccc3n2)c1 | 290 nM | 1020 nM |  | 430 nM | 790 nM |
| COc1cc2c(Oc3ccc(NC(=O)c4cc(-c5ccc(C)cc5)nc5ccccc45)cc3F)ccnc2cc1OCCCN1CCCC1 | 240 nM | 850 nM |  | 300 nM | 520 nM |
| COc1cc2c(Oc3ccc(NC(=O)c4cc(-c5ccccc5)nc5ccc(F)cc45)cc3F)ccnc2cc1OCCCN1CCCCC1 | 32 nM | 120 nM | 690 nM | 30 nM |  |
| COc1cccc(-c2cc(C(=O)Nc3ccc(Oc4ccnc5cc(OCCCN6CCCCC6)c(OC)cc45)c(F)c3)c3cc(F)ccc3n2)c1 | 1000 nM | 2500 nM | 1610 nM | 690 nM |  |
| COc1cc2c(Oc3ccc(NC(=O)c4cc(-c5ccc(C)cc5)nc5ccc(F)cc45)cc3F)ccnc2cc1OCCCN1CCCCC1 | 260 nM | 500 nM | 1050 nM | 170 nM |  |
| COc1ccc(-c2cc(C(=O)Nc3ccc(Oc4ccnc5cc(OCCCN6CCCCC6)c(OC)cc45)c(F)c3)c3cc(F)ccc3n2)cc1 | 240 nM | 600 nM | 1100 nM | 260 nM |  |

| SMILES | IC50 [1] | IC50 (HT-29) | IC50 [2] | IC50 (MKN-45) | IC50 (SMMC-7721) |
| --- | --- | --- | --- | --- | --- |
| COc1cc2c(Oc3ccc(NC(=O)c4cc(-c5ccc(Cl)cc5Cl)nc5ccc(F)cc45)cc3F)ccnc2cc1OCCCN1CCCCC1 | 310 nM | 530 nM | 1040 nM | 250 nM |  |
| COc1cc2c(Oc3ccc(NC(=O)c4cc(-c5ccc(F)cc5)nc5ccc(F)cc45)cc3F)ccnc2cc1OCCCN1CCOCC1 | 27 nM | 250 nM | 2150 nM | 51 nM |  |
| COc1cc2c(Oc3ccc(NC(=O)c4cc(-c5cccc(Cl)c5)nc5ccc(F)cc45)cc3F)ccnc2cc1OCCCN1CCOCC1 | 68 nM | 1200 nM | 1060 nM | 60 nM |  |
| COc1cc2c(Oc3ccc(NC(=O)c4cc(-c5ccccc5)nc5ccccc45)cc3F)ccnc2cc1OCCCN1CCCCC1 | 110 nM | 530 nM | 1490 nM | 15 nM | 290 nM |
| COc1ccc(-c2cc(C(=O)Nc3ccc(Oc4ccnc5cc(OCCCN6CCCCC6)c(OC)cc45)c(F)c3)c3ccccc3n2)cc1 | 290 nM | 690 nM | 1360 nM | 210 nM | 210 nM |
| COc1cccc(-c2cc(C(=O)Nc3ccc(Oc4ccnc5cc(OCCCN6CCCCC6)c(OC)cc45)c(F)c3)c3ccccc3n2)c1 | 210 nM | 1740 nM |  | 360 nM | 380 nM |
| COc1cc2c(Oc3ccc(NC(=O)c4cc(-c5ccc(F)cc5)nc5ccccc45)cc3F)ccnc2cc1OCCCN1CCCCC1 | 21 nM | 130 nM | 980 nM | 28 nM | 74 nM |
| COc1cc2c(Oc3ccc(NC(=O)c4cc(-c5cccc(Cl)c5)nc5ccccc45)cc3F)ccnc2cc1OCCCN1CCCCC1 | 11 nM | 62 nM | 150 nM | 11 nM | 30 nM |
| COc1cc2c(Oc3ccc(NC(=O)c4cc(-c5ccc(Cl)c(Cl)c5)nc5ccccc45)cc3F)ccnc2cc1OCCCN1CCCCC1 | 820 nM | 1210 nM |  | 730 nM | 770 nM |
| COc1cc2c(Oc3ccc(NC(=O)c4cc(-c5ccccc5)nc5ccccc45)cc3F)ccnc2cc1OCCCN1CCOCC1 | 190 nM | 1520 nM | 1140 nM | 91 nM | 330 nM |
| COc1ccc(-c2cc(C(=O)Nc3ccc(Oc4ccnc5cc(OCCCN6CCOCC6)c(OC)cc45)c(F)c3)c3ccccc3n2)cc1 | 750 nM | 3190 nM |  | 160 nM | 1180 nM |
| COc1cccc(-c2cc(C(=O)Nc3ccc(Oc4ccnc5cc(OCCCN6CCOCC6)c(OC)cc45)c(F)c3)c3ccccc3n2)c1 | 560 nM | 3050 nM |  | 110 nM | 1130 nM |
| COc1cc2c(Oc3ccc(NC(=O)c4cc(-c5cccc(Cl)c5)nc5ccccc45)cc3F)ccnc2cc1OCCCN1CCOCC1 | 80 nM | 1080 nM | 1470 nM | 35 nM | 320 nM |
| COc1cc2c(Oc3ccc(NC(=O)c4cc(-c5ccc(C(F)(F)F)cc5)nc5ccccc45)cc3F)ccnc2cc1OCCCN1CCOCC1 | 68 nM | 230 nM | 1010 nM | 12 nM | 100 nM |
| COc1cc2c(Oc3ccc(NC(=O)c4cc(-c5ccc(C)cc5)nc5ccccc45)cc3F)ccnc2cc1OCCCN1CCOCC1 | 1100 nM | 3560 nM |  | 830 nM | 1520 nM |
| COc1cc2c(Oc3ccc(NC(=O)c4cc(-c5cccc(Cl)c5)nc5ccccc45)cc3F)ccnc2cc1OCCCN1CCC(C)CC1 | 65 nM | 100 nM | 580 nM | 30 nM | 80 nM |
